Series [1] deals with overactive bladder syndrome. As to conditions: both phase III studies, over placebo; cited from earlier work.
Series [2] can be described thus: In vitro solubility behaviour. The format is physicochemical. As to conditions: for In vitro solubility profile: compared with fesoterodine fumarate. The protocol: The in vitro solubility behaviour of fesoterodine fumarate (crystalline, commercially available), desfesoterodine fumarate in accordance with Comparative Example 1 and desfesoterodine tartrate in accordance with Example 1 of the invention was investigated:
Solubility behaviour scale: • poor: <20 mg/ml • average: 20 to 60 mg/ml • good: >60 to 80 mg/ml • very good: >80 mg/ml

The nature of series [3]: Stability on storage, stress test. The format is physicochemical. On the procedure:
Further, the stability on storage of desfesoterodine tartrate was determined in a stress test.

Structures can show the parent of a compound that is named as a salt.

Data on four compounds can be found in patent US9085507B2, “Desfesoterodine in the form of a tartaric acid salt” (ratiopharm GmbH, priority 2009, dated 2015).

With `CC(C)C(=O)Oc1ccc(CO)cc1[C@H](CCN(C(C)C)C(C)C)c1ccccc1` [Fesoterodine, 2-[(1R)-3-(diisopropylamino)-1-phenylpropyl]-4-(hydroxymethyl)phenyl-isobutyrate], the “Clinically relevant outcomes (urge incontinence results/24 h, micturition frequency, median micturition volume)” value in series [1] was “statistically significant improvements”.

For the compound `CC(C)N(CC[C@H](c1ccccc1)c1cc(CO)ccc1O)C(C)C` [Desfesoterodine tartrate, (R)-2-(3-diisopropylamino-1-phenylpropyl)-4-hydroxymethylphenol], the “In vitro solubility profile” value in series [2] (listed as desfesoterodine salt of the invention) is on record as “almost identical in vitro solubility profile to that of fesoterodine fumarate”. The “In vitro solubility behaviour” value in series [2] (pH 4.5) and in series [2] (pH 10) was “Good” in each case. The Stability on storage entry is given as “advantageous stability on storage” in series [3] (aqueous solution, pH of 4.5); “advantageous stability on storage” in series [3] (aqueous solution, pH of 10); “advantageous stability on storage” in series [3] (solid form).

In the case of `CC(C)N(CC[C@H](c1ccccc1)c1cc(CO)ccc1O)C(C)C` [Desfesoterodine fumarate, (R)-2-(3-diisopropylamino-1-phenylpropyl)-4-hydroxymethylphenol], the “In vitro solubility profile” value in series [2] was “substantially poorer in vitro solubility profile”. The “In vitro solubility behaviour” value in series [2] (pH 4.5) and in series [2] (pH 10) was “Poor” each time.

As for `CC(C)C(=O)Oc1ccc(CO)cc1[C@H](CCN(C(C)C)C(C)C)c1ccccc1` [Fesoterodine fumarate, 2-[(1R)-3-(diisopropylamino)-1-phenylpropyl]-4-(hydroxymethyl)phenyl-isobutyrate], the “In vitro solubility behaviour” value in series [2] (pH 4.5) and in series [2] (pH 10) was “Good” each time.
